The record followed here is patent publication US8193378B2, “2H-chromene compound and derivative thereof” (Astellas Pharma Inc., priority 2008, dated 2012).

Data set [1] concerns peripheral blood lymphocytes. Briefly: Reduction of number of peripheral blood lymphocytes in rat (Test Example 2). As to conditions: Lymphocyte, male Lewis rats, oral, 24 hours after administration, read-out: B: ED50 24 h, reduction of number of lymphocytes in peripheral blood. Type of data set: in vivo. The method, then:
Evaluation of Reduction of Number of Peripheral Blood Lymphocytes in Rat
The action on the peripheral blood lymphocytes were evaluated using rats. 6- to 10-week-old male Lewis rats (Japan Charles River Laboratories Japan, Inc.) were randomly divided into groups (n=3), and the compound of the present invention was suspended in 0.5% methyl cellulose-containing distilled water, and orally administered with a sonde. At 4 hours or 24 hours after administration, 0.2 ml of blood was collected from the ocular fundus under ether anesthesia. To the blood sample were immediately added EDTA.4K and heparin to prevent clotting, and the number of the lymphocytes in blood was measured with an automatic hematocyte analyzer (Sysmex Corp.; XT-2000i). For the reduction of the number of the lymphocytes in peripheral blood by the compound of the present invention, the percentage with the number of the lymphocytes in groups administered with 0.5% methyl cellulose-containing distilled water being set at 100%, as performed at the same time, were used, and the dose to cause 50% reduction of the number of the lymphocytes in the peripheral blood by administration of the compound of the present invention was defined as an ED50 value (mg/kg).

The nature of data set [2]: Infrequent pulse expression using awake rats (Test Example 5). The class given is in vivo, rat. As to conditions: awake male Lewis rats, intravenous infusion for 10 minutes, 1 mg/kg administration. The protocol:
Evaluation of Infrequent Pulse Expression Using Awake Rats Male Lewis rats were anesthetized with isoflurane inhalation and a polyethylene tube was intubated into the femoral artery and vein. It was connected to a blood pressure measuring amplifier•heart rate unit via a pressure transducer from an arterial line, and the arterial blood pressure and the heart rate were measured. Intravenous line from Vehicle (10% HCO40/tween80/PEG, 90% saline) and the present compounds were intravenously infused persistently at a rate of 1 mL/kg/min for 10 minutes. The measurement data were read (for a total evaluation time of 20 minutes) from a chart of the values before administration, at 1, 2, 5, and 10 min after the start of constant infusion, and at 1, 2, 5, and 10 min after the completion of infusion, and thus, for the heart rate and the blood pressure before administration, the decrease rates (%) before and after infusion were calculated.

Data set [3] has as its target T1, human S1P1 (Homo sapiens, UniProt P21453).
T1 construct: expressed in transfected cells; membrane fraction used
Briefly: Ca2+ influx assay using human S1P1 expressing cell (Test Example 1, Method 2). The class given is cell-based. As to conditions: method 2, Ca2+ influx, human S1P1 expressing CHO cell (values with *); read-out: A: EC50, in vitro S1P1 agonist action (value with *). The method, then: Evaluation of In Vitro S1P1 Receptor Agonist Activity in Biological Body
(Method 2) Method for Evaluation of Receptor Agonist Action by Ca^2+ Influx Assay Using Human S1P1 Expressing Cell
The in vitro S1P1 agonist action of the compound of the present invention was evaluated by the increase in the Ca^2+ concentration in a human S1P1 expressing cell. A cDNA encoding a human S1P1 was cloned from a human colorectal cDNA library and introduced to an expression vector pcDNA3.1 to construct a S1P1-pcDNA3.1. Then, by Lipofectamine 2000 (GIBCO), the S1P1-pcDNA3.1 was transfected into a CHO cell, and cultured in a Ham's F-12 culture medium containing 10% fetal bovine serum, 100 U/mL penicillin, 100 μg/mL streptomycin, and 1 mg/mL G418 disulfate, to obtain a stable, G418-resistant strain. The cultured human S1P1 expressing cells were isolated in a 1 mM EDTA.2Na-containing PBS and suspended in a Ham's F-12 culture medium containing 10% fetal bovine serum, 100 U/mL penicillin, and 100 μg/mL streptomycin. This cell suspension was dispensed to a 96-well plate at 50000 cells/well, and cultured at a CO2 incubator (5% CO2, 37° C.) overnight. The culture medium was replaced with a calcium-sensitive fluorescent reagent (FLIPR (registered trademark) calcium 3 assay kit, molecular device)-containing loading buffer (Hank's balance salt solution, 20 mM HEPES, 2.5 mM probenecid) and left stand at a CO2 incubator (5% CO2, 37° C.) for 1 hour. The plate was set at a Functional Drug Screening System FDSS6000 (Hamamatsu Photonics K. K.), and persistently measured 124 times every 1.02 second at an excitation wavelength of 480 nm. The test compound (final concentration 10^−12 to 10^−5 M) was added at the same time as the 12th measurement, and the change in the Ca^2+ concentration in cells was evaluated by the change in the fluorescent strength. For evaluation of the human S1P1 agonist action of the compound of the present invention and the comparative compound, the percentages with the rate of a maximum reaction to make the increase in the Ca^2+ concentration in cells saturated after the addition of the compound being set at 100% and the rate of the increase in the Ca^2+ concentration in cells by the addition of a vehicle alone being set at 0% were used, a non-linear regression curve was plotted, and a concentration to cause an agonist action operating 50% of the maximum reaction was defined as an EC50 value (nM).

The structures appear in SMILES notation.

T1 sequence (P21453 whole entry): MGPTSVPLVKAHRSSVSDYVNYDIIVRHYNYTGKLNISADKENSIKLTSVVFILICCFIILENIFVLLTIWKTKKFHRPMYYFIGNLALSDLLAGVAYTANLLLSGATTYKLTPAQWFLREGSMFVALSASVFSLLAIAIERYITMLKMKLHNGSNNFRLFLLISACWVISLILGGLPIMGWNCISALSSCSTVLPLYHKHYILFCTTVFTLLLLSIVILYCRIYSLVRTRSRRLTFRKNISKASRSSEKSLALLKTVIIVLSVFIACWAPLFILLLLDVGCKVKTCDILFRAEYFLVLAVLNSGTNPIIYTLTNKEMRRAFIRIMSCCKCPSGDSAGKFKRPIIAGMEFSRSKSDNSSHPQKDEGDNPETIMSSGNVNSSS

One may read the ED50 as the midpoint of the dose-response relation. As a reminder, the EC50 is the midpoint of the concentration-response curve. Turning to `Cl.O=C(O)[C@H]1CCCN(CC2=Cc3c(F)cc(OCc4ccc(OC(CF)CF)c(C(F)(F)F)c4)cc3OC2)C1` [Ex 230], the ED50 in data set [1] worked out at 0.19 mg/kg. Moreover, in data set [2], the “influence on the heart rate and the blood pressure” value is reported as “does not have an influence”; the infrequent pulse expression entry is “not expressed”. For the same molecule, the EC50 in data set [3] was 7 nM.
Turning to `C[C@H](Oc1ncc(COc2ccc3c(c2)OCC(CN2CCC=C(C(=O)O)C2)=C3)cc1Cl)C(F)(F)F.Cl` [Ex 183], the ED50 in data set [1] amounted to 0.21 mg/kg. In addition, the concentration giving a half-maximal response (EC50) in data set [3] turned out to be 5.5 nM.
In the same order, the values of `CC(C)Oc1ccc(COc2ccc3c(c2)OCC(CN2CCC=C(C(=O)O)C2)=C3)cc1Cl.Cl` [Ex 151] are 0.35 mg/kg and 1.1 nM.
In the same order, the values of `CS(=O)(=O)NC(=O)[C@@H]1CCCN(CC2=Cc3c(F)cc(OCc4ccc(OC(CF)CF)c(C(F)(F)F)c4)cc3OC2)C1.Cl` [Ex 152] are 0.28 mg/kg and 6.3 nM.
In the same order, the values of `Cl.O=C(O)C1CCN(CC2=Cc3ccc(OCc4ccc(OCC(F)(F)F)c(C(F)(F)F)c4)cc3OC2)CC1` [Ex 171] are 0.14 mg/kg and 9 nM.
For `C[C@H](Oc1ccc(COc2ccc3c(c2)OCC(CN2CCC[C@@H](C(=O)O)C2)=C3)cc1C(F)(F)F)C(F)(F)F.Cl` [Ex 156, (3R)-1-[(7-{[3-(trifluoromethyl)-4-{[(2S)-1,1,1-trifluoropropan-2-yl]oxy}benzyl]oxy}-2H-chromen-3-yl)methyl]piperidine-3-carboxylic acid hydrochloride], the ED50 in data set [1] was 0.086 mg/kg. For the same molecule, the EC50 in data set [3] worked out at 16 nM.
